Columns and labels:
[1] = system: collagen-induced arthritis; experiment: Paw volume by plethysmometry in collagen-induced arthritis (CIA) (Experiment 2); type: in vivo, Female Lewis rats; settings: for Pr > F: 2x2 factorial analysis on swelling of the paw, PEA 30 mg/kg, ibuprofen 5 mg/kg, PEA*IBU = interaction (synergy)
Description: Rheumatoid arthritis is a disease characterized by inflammatory pain, in which the involved joints present swelling, stiffness and often erosive processes. Female Lewis rats were maintained on a 12/12 hour light/dark cycle, at constant temperature and humidity and acclimated for 1 week, with free access to water and standard diet. […] Arthritis score, change in paw volume (mL), and change in body weight (g) were measured as indicators of inflammatory pain. Arthritis severity was measured every other day starting on day 25, using the following score: 0 = no sign of arthritis; 1 = swelling and/or redness of the paw or toe; 2 = two joints involved; 3 = more than two joints involved; and 4 = severe arthritis of the entire paw and toes. The arthritis index for each subject was calculated by adding the four scores of the individual paws. The change in paw volume compared to day 21 was assessed every two days by plethysmometry (Ugo Basile) starting from day 25. The change in weight was measured for each animal on day 21 and then every two days starting from day 25.
The chosen inflammatory pain indicators were analyzed via Generalized Linear Model (GLM) followed by post-hoc analysis based on Tukey-Kramer correction for multiple comparisons. […] All analyzes were performed using SAS software, version 9.4 (SAS Institute, Cary, NC, USA).

[2] = system: inflammatory pain induced by CFA; experiment: Incapacitance test (spontaneous pain), CFA-induced inflammatory pain, chronic (14 days) oral treatment (Experiment 4); type: in vivo, male Sprague-Dawley rats; settings: 2x2 ANOVA on percentage inhibition of spontaneous pain, interaction line = synergy
Description: The inflammatory pain model was induced by injecting Complete Freund's Adjuvant (CFA, Sigma-Aldrich) into the tibiotarsal joint of male Sprague-Dawley rats (Charles River), housed in 26x41 cm cages at the Animal Husbandry Centre. Laboratory Animals (Ce.S.A.L.) of the University of Florence with a 12-hour circadian cycle, water and food (standard diet) "ad libitum", temperature of 23±1°C. Intra-articular injection occurred according to the method described by Butler et al. (Pain 48:73-81,1992) after light anesthesia with 2% isoflurane. The skin surrounding the injection site was sterilized with 75% ethyl alcohol. Then a 28-gauge needle was inserted into the joint cavity, through which a volume of 50 µl of CFA was injected. The animals were then divided into the following treatment groups (N = 8): • Sham (control, a volume of physiological solution equal to that used for CFA animals was injected into the tibiotarsal joint) • Vehicle (CMC 1%) • Diclofenac (3 mg/kg) • Diclofenac (30 mg/kg) • PEA (10 mg/kg) • PEA-OXA (10 mg/kg) [formula] [formula] [formula] [formula]
The tested molecules - used both individually and in combination - were suspended in 1% CMC and administered orally daily from day 1 to day 14 (chronic treatment). […] Behavioral tests were conducted 24 hours after the last administration, in order to highlight the effect of repeated treatment on joint pain. Inflammatory pain induced by CFA injection was measured by paw pressure test. […] The nociceptive threshold has been expressed as the force to which the animal reacts by retracting its paw or vocalizing (Leighton et al., Br J Pharmacol 93:553-560,1988). An analgesimeter (Ugo Basile, Varese) was used for this purpose, which allows the mechanical hyperalgesia to be quantified. Furthermore, spontaneous pain was assessed using the incapacitance test, which evaluates variations in postural balance through the "Incapacitance" device (Linton Instrumentation, UK), a scale which simultaneously, but separately, measures the force imparted by each paw (Fernandes et al., Arthritis Res Ther. 2016 Jan 11;18:7).
Briefly, rats were trained to stand on their hind legs in a box with an inclined plane (65° to the horizontal), placed above the "Incapacity" apparatus. […] The results were expressed in terms of "painful potency", defined as percentage inhibition (mean ± SEM) of inflammatory pain induced by CFA and calculated according to the formula: 100* (treatm-VEIC)/(CTRL-VEIC)."
The effect on pain was analyzed using Generalized Linear Model (GLM) followed by post-hoc analysis based on Tukey-Kramer correction for multiple comparisons. The results of the analyses were expressed as mean ± standard error of the mean (SEM). […]

[3] = in vivo; cited from earlier work

CCCCCCCCCCCCCCCC(=O)NCCO [PEA, N-palmitoylethanolamide]
Pr > F ([1]; 6° giorno di trattamento): 0,0002 | Pr > F ([1]; 8° giorno di trattamento): <0,0001 | Pr > F ([1]; 10° giorno di trattamento): <0,0001 | effect on paw volume increase ([1]; single administration of PEA 30 mg/kg or ibuprofen 5 mg/kg (not combined)): had no effect | Pr > F ([2]; PEA 5 mg/kg + diclofenac 3 mg/kg compared with diclofenac 3 mg/kg and PEA 10 mg/kg alone): <0,0001 | Pr > F ([2]; PEA 10 mg/kg, diclofenac 3 mg/kg): 0,0084 | dose free of acute and sub-chronic toxicity [3]: ≥ 1000 mg/kg daily
